Results reported in patent publication US5952390A, “10-substituted 1,8-dihydroxy-9(10H) anthracenone pharmaceuticals” (Teva Pharmaceutical Industries Ltd., priority 1998, dated 1999).
Where two headings read alike, the source gives them in different places.

How the values were obtained:
[1] = Reducing activity toward DPPH; settings: Table I (Addendum); equimolar amount of test compound
Description: This assay followed generally the procedures of Blois, M. S., "Antioxidant Determinations by the Use of a Stable Free Radical", Nature, 181, 1199-1200 (1958) and Kato, K. et al., "Studies on Scavengers of Active Oxygen Species. 1. Synthesis and Biological Activity of 2-O-Alkylascorbic Acids", J. Med. Chem., 31, 793-798 (1988). In time studies, 1 ml of test compound solution (10^-4 M) was added to 1 ml of DPPH solution (10^-4 M), each in acetone/PBS (1+1 V/V), and the reduction of DPPH was followed spectrophotometrically at 516 nm. Plots of the reciprocal of DPPH concentrations against time gave straight lines, and the second-orderrate constants were obtained from the slopes and are expressed as mean values (n=3-6). In the cases where DPPH was very fast approximate values are given and expressed as kDPPH >100 or kDPPH >>100M^-1s^-1.
Because a radical scavenging antioxidant reacts rapidly with the stable free radical 2,2-diphenyl-1-picrylhydrazyl (DPPH), Blois, M. S., "Antioxidant Determination by the Use of a Stable Free Radical", Nature, 181, 1199-1200 (1958); Kato, K. et al., "Studies on Scavengers of Active Oxygen Species. I. Synthesis and Biological Activity of 2-O-Alkylascorbic Acids", J. Med. Chem., 31, 793-798 (1988), the reactivities of the new compounds with DPPH were determined by decrease in absorbance at 516 nm.

[2] = Degradation of 2-deoxy-D-ribose (hydroxyl radical formation); settings: Table I (Addendum); controls: <0.1; 75 μM compound per method
Description: This assay followed generally the procedures of Gutteridge, J. M. C., "Reactivity of Hydroxyl and Hydroxyl-Like Radicals Discriminated by Release of Thiobarbituric Acid-Reactive Material from Deoxy Sugars, Nucleosides and Benzoate", Biochem. J., 224, 761-767 (1984) and of Laughton, M. J. et al., "Antioxidant and Prooxidant Actions of the Plant Phenolics Quercetin, Gossypol and Myricetin", Biochem. Pharmacol., 38, 2859-2865 (1989). The following reagents were added to glass tubes in the order and at the final concentrations stated. 0.3 ml KH2 PO4 -KOH buffer, pH 7.4 (30 mM), 0.2 ml H2 O bidist., 0.2 ml 2-deoxy-D-ribose (2 mM), 0.2 ml FeCl3 .cndot.6 H2 O (0.1 mM), 0.1 ml anthracenone derivative (75 μM). Stock solutions of the compounds were made up fresh before use. Appropriate blanks and controls with the vehicle (acetonitrile) were conducted. The final reaction volumes were standardized to 1.0 ml. The reaction mixtures were incubated for 2 h at 37° C. in a shaking water bath. 1.0 ml of 2.8% (w/v) trichloroacetic acid and 1.0 ml of 1% (w/v in 0.05 N NaOH) 2-thiobarbituric acid (TBA) were added, and the samples were heated at 100° C. for 15 min and then cooled in an ice bath (5 min). Then 2.0 ml of the reaction mixtures were treated with 0.05 ml of 36% (w/v) HCl and 2.0 ml of 1-butanol and the mixtures were vigorously shaken in a vortex mixer (Heidolph) for 15 s. The organic layer was separated by centrifugation at 3000 rpm (15 min) and the absorbance at 532 nm was measured against butanol. […]
The biological assay methods were as follows: LDH release as described in Muller K, Huang H-S, Wiegrebe W, J. Med. Chem. 39, 3132-3138 (1996); bovine PMNL 5-LO assay as described in Muller K, Gurster D, Piwek S, Wiegrebe W, J. Med. Chem. 36, 4099-4107 (1993); and degradation of 2-deoxy-D-ribose as described in Muller K, Gurster D, Biochem. Pharmacol. 46, 1695-1704 (1993). […] Extracellular LDH activity was measured using the UV method with pyruvate and NADH and is expressly in mU/ml. […]

[3] = molecular target: T1, 5-LO in bovine PMNL (Bos taurus, UniProt F1MQ78); assay: Bovine PMNL 5-lipoxygenase assay (inhibition of 5-HETE and LTB4 biosynthesis); format: cell-based; settings: at 30 μM
T1 construct: endogenous in cells; host or cells: polymorphonuclear leukocytes isolated from bovine blood
T1 sequence (F1MQ78 1-674): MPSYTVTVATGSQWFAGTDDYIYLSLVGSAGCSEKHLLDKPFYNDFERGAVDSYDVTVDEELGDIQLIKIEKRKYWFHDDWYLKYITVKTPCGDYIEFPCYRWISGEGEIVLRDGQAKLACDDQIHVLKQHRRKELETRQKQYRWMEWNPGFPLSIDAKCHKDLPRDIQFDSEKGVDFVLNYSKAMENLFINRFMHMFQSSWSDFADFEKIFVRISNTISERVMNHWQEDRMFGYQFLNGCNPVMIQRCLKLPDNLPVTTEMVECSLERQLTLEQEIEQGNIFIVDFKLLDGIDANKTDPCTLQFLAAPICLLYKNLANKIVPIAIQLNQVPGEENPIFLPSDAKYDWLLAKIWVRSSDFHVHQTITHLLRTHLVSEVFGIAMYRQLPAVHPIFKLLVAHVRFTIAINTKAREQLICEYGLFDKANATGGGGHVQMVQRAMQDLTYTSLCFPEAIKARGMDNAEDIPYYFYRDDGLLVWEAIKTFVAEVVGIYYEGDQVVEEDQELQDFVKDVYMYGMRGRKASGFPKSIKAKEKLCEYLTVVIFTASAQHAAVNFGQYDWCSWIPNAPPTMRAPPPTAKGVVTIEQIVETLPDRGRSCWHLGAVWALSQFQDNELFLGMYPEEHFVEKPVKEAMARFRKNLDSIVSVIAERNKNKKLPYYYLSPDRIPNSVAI

CCCC(=O)C1c2cccc(O)c2C(=O)c2c(O)cccc21 [Butantrone, 10-Butyryl-Dithranol]
kDPPH [1]: 7.0 ± 0.6 M⁻¹ s⁻¹
deoxyribose degradation [2]: 0.24 ± 0.03 μmol MDA/mmol
inhibition at 30 µM ([3]; PMNL, Table I (Addendum), read-out: 5-LO percent inhibition (value in parentheses)): 38%
inhibition at 30 µM ([3]; bovine PMNL, read-out: inhibition at 30 μM): 38%
